Patent US20260070895A1, “CRYSTALLINE FORMS” (QUIMATRYX, S.L., priority 2022, published 2026)

Columns and labels:
[1] = Genotoxicity (clastogenicity, aneugenicity); settings: unlike other histone deacetylase inhibitors
HDAC 6 = target: T1, HDAC 6 (Homo sapiens, UniProt Q9UBN7); settings: cited from earlier work
T1 sequence (Q9UBN7 1-1215): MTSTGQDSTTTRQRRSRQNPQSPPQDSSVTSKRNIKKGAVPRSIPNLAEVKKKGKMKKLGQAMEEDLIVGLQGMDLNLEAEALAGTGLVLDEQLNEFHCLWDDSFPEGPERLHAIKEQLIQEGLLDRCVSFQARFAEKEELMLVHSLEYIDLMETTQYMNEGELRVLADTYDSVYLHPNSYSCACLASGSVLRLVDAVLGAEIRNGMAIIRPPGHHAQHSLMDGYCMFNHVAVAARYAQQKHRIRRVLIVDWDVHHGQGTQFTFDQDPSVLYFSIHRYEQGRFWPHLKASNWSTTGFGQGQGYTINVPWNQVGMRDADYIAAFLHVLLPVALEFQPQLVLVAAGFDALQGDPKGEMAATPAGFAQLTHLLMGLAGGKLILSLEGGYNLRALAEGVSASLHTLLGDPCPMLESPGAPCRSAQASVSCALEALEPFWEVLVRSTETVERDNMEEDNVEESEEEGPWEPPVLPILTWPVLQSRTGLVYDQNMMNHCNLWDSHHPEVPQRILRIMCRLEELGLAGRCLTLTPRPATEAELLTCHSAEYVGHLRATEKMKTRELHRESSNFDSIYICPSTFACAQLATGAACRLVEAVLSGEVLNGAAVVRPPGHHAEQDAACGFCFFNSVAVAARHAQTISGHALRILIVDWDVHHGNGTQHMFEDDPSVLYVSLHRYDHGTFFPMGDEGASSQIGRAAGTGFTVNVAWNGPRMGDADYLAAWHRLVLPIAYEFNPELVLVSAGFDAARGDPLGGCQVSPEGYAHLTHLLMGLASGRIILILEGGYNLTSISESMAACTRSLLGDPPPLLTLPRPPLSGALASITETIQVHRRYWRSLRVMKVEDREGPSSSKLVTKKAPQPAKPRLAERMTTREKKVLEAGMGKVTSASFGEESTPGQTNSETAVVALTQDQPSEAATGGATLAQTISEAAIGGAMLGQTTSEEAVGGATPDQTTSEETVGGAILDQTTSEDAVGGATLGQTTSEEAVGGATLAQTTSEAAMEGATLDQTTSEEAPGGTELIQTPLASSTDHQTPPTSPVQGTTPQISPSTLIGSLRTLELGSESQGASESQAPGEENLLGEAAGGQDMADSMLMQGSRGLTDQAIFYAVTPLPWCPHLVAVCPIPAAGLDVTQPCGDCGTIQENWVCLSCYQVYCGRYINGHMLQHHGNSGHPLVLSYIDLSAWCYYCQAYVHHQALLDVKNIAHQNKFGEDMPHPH

[2] = hydroxamic acids such as QTX125; cited from earlier work
[3] = tested on: mantle cell lymphoma, lung cancer and pancreatic cancer xenograft; settings: lung cancer and pancreatic cancer xenograft murine models; cited from earlier work
[4] = Pharmacokinetic properties; assay type: in vivo; settings: compared with other histone deacetylase inhibitors
[5] = tested on: multiple sclerosis mice models; settings: two different multiple sclerosis mice models; cited from earlier work
[6] = Solubility and stability of QTX125 in aqueous solution (background); assay type: physicochemical

O=C(NO)c1ccc(CNC(=O)c2[nH]c(-c3ccc(O)cc3)cc2-c2ccoc2)cc1 [QTX125, 3-(3-furyl)-N-{4-[(hydroxyamino)carbonyl]benzyl}-5-(4-hydroxyphenyl)-1H-pyrrole-2-carboxamide]
genotoxicity, in particular clastogenicity or aneugenicity [1]: no evidence of genotoxicity | HDAC 6 inhibition (in words) (HDAC 6): highly selective and highly potent | solubility in water [2]: very low solubility | antitumoral efficacy [3]: high antitumoral efficacy | pharmacokinetic properties: half-lives and distribution volumes [4]: higher half-lives and distribution volumes | efficacy in multiple sclerosis models [5]: high efficacy | physical and chemical stability in solution [6]: physical and chemical instability
